Measurements published in patent publication US6420600B1, “Phenylalaninol derivatives” (Hoffman-La Roche Inc., priority 1999, dated 2002).

Key:
[1] = system: Adult male cynomolgus monkeys; assay: Acute airway inflammation in the atopic primate (A. suum antigen challenge, bronchoalveolar lavage cell counts); format: in vivo, Macaca fascicularis; details: p.o., 2 hours prior to A. suum antigen challenge; lavage at 24 hour after challenge; relative to vehicle treated control animals
Experimental: Acute airway inflammation in the atopic primate.
Airway inflammation in the monkey was determined using a modification of the protocol described by Turner et al. (Turner et al., 1994). Adult male cynomolgus monkeys (Macaca fascicularis, Hazelton Labs, Denver, Pa.) weighing between 3.6-5.8 kg were used in these studies.
On the day of each experiment the animals were anesthetized with ketamine hydrochloride, 12 mg/kg, and xylazine, 0.5 mg/kg, intubated with a cuffed endotracheal tube (3 mm, Mallinckrodt Medical, St. Louis, Mo.), then seated in an upright position in a specially designed Plexiglass chair (Plas-Labs, Lansing, Mich.). The endotracheal tube was connected to a heated Fleisch pneumotachograph. Airflow was measured via a Validyn differential pressure transducer (DP 45-24) that was attached to the pneumotachograph. Transpulmonary pressure was measured via a second Validyne transducer (DP 45-24) connected between a sidearm of the tracheal cannula and a 18-gauge intrapleural needle inserted in the intercostal space located below the left nipple. […]
Airway inflammation was induced by exposing the animal to an aerosol of A. Suum extract for 60 sec. […] Airway inflammation was assessed by inserting a pediatric bronchoscope into the airway lumen down to about the 4 or 5th generation bronchi and gently lavaging with 3 ×2 ml aliquots of sterile Hanks Balanced Salt Solution. […]

Cc1cccc(Cl)c1C(=O)N[C@H](CO)Cc1ccc(NC(=O)c2c(Cl)cccc2Cl)cc1 [Example 1, 4-[[(2,6-dichlorophenyl)carbonyl]amino]-N-[(2-chloro-6-methylphenyl)carbonyl]-L-phenylalaninol]
number of inflammatory cells present in the lavage fluid [1]: significant decrease
percent of inflammatory cells present in the lavage fluid [1]: significant decrease
melting point: 198 to 200 °C
